Assay results reported in US9211313B2, “Methods and compound to inhibit Ca2+ permeable cation conductance” (priority 2011, dated 2015).

Assays:
[1] = tested on: deoxygenation-activated Ca2+-permeable conductance in human SS cells; assay: On-cell patch clamp of deoxygenation-activated Ca2+-permeable conductance, CaCl2 in pipette; assay type: cell-based; settings: 1 μM in the pipette; -Vp=-25 mV
Experimental: Blood cell preparation: Human SS and AA blood was obtained under IRB-approved protocols of Children's Hospital and Beth Israel Deaconess Medical Center. After buffy coat removal and 5 washes in standard human red cell wash solution containing (in mM) 150 choline Cl, 1 MgCl, and 10 Tris-MOPS, pH 7.4, red cells were resuspended in storage solution containing (in mM) 145 KCl, 15 NaCl, and 10 HEPES, pH 7.4, then kept at 4° C. until used. […]
Mouse red cells allowed to settle on coverslips were superfused 15 min with bath solution containing (in mM) either 150 mM Na methanesulfonate, 10 Na EDTA, and 10 Na HEPES, pH 7.4; or 140 NaCl, 4 KCl, 1CaCl2, 1 MgCl2, 10 Na HEPES, pH 7.4. […] The resulting bath pO2 was 18 mm Hg as measured by oxygen electrode (WPI). […]
On-cell patch clamp: Borosilicate pipettes (Corning 7052) pulled with a Narishige two stage puller or a Sutter P97 puller and fire-polished to resistances of 10-20 MΩ were front-filled and then backfilled. […] For study of deoxygenation-induced monovalent cation permeation in the absence of bath Ca^2+ and Mg^2+ recorded in SAD and Berkeley mouse cells and in human cells, symmetric bath and pipette solutions contained (in mM) 150 Na methanesulfonate, 10 Na EDTA, and 10 Na HEPES, pH 7.4. […]
On-cell patch currents were recorded with the Axopatch 1-D amplifier (Axon Instruments/Molecular Devices, Sunnyvale, Calif.). […]

[2] = tested on: LPA-induced cation conductance in human SS red cells; assay: On-cell patch clamp of LPA-induced cation conductance; assay type: cell-based; settings: 1 μM in the pipette
From the text: On-cell patch clamp: Borosilicate pipettes (Corning 7052) pulled with a Narishige two stage puller or a Sutter P97 puller and fire-polished to resistances of 10-20 MΩ were front-filled and then backfilled. Symmetric bath and pipette solutions for studies of seal resistance stability during reversibility tests of the deoxygenation-activated conductance in SAD mouse red cells were (in mM) 140 NaCl, 4 KCl, 1 CaCl2, 1 MgCl2, 10 Na HEPES, pH 7.4. These conditions yielded tight seals in 13% of patch attempts on SAD cells. For study of deoxygenation-induced monovalent cation permeation in the absence of bath Ca^2+ and Mg^2+ recorded in SAD and Berkeley mouse cells and in human cells, symmetric bath and pipette solutions contained (in mM) 150 Na methanesulfonate, 10 Na EDTA, and 10 Na HEPES, pH 7.4. These conditions yielded tight seals in 16% of patch attempts on SAD mouse red cells, 26% of attempts on Berkeley mouse cells, and 30% of attempts on human SS cells. For study of Ca^2+ permeation in human SS cells, bath and pipette solutions contained (in mM) 100 CaCl2, 10 Na HEPES, pH 7.4. These conditions yielded tights seals on 44% of attempts. For all conditions tested in human red cells, 70% of tight seals were sustained through the solution change accompanying deoxygenation to allow recording of current activity.
On-cell patch currents were recorded with the Axopatch 1-D amplifier (Axon Instruments/Molecular Devices, Sunnyvale, Calif.). Holding potential was −Vp=−50 mV (expressed as the negative of the pipette potential (e.g., equivalent to the intracellular potential with respect to the pipette). To determine current-voltage relationships (I-V curves) in Fetchex or Clampex (PCLAMP, Axon Instruments), the realtime control window in gap-free mode was used to record current traces of 10-30 sec duration at holding potentials ranging from −100 to +100 mV, in 25 mV increments. The bath reference electrode was a silver chloride wire with a 3 M KCl agar bridge. Data was filtered at 500 Hz, digitized at 2 kHz by Clampex, and analyzed offline by Fetchan and Pstat or by Clampfit subroutines of PCLAMP. Holding potentials in on-cell patch experiments were expressed as −Vp, the negative of the pipette potential.
Deoxygenation-activated flickering cation conductance observed in human SS cells contrasted with the prolonged channel openings produced by 5 μM LPA (FIG. 10A). In SS cells, LPA increased NPo […], from 0.04±0.03 to 0.82±0.18 (n=8, p<0.001; Na methanesulfonate in bath and pipette, −Vp=−50 mV; FIG. 10B). LPA-induced cation conductance was 96% inhibited by 100 uM dipyridamole in the pipette, and 97% inhibited by 1 μM GsMTx-4 in the pipette (both n=4).

KCa3.1 = molecular target: T1, KCa3.1 (Homo sapiens, UniProt O15554); assay: A23187-stimulated KCa3.1 activity measured as 86Rb influx; assay type: cell-based; settings: 1 μM; intact human AA cells, 1 μM A23187, extracellular Ca2+; n=3
T1 construct: KCa3.1 activity stimulated in intact human AA cells by 1 μM A23187; endogenous in cells; host or cells: intact human AA red blood cells
T1 sequence (O15554 whole entry): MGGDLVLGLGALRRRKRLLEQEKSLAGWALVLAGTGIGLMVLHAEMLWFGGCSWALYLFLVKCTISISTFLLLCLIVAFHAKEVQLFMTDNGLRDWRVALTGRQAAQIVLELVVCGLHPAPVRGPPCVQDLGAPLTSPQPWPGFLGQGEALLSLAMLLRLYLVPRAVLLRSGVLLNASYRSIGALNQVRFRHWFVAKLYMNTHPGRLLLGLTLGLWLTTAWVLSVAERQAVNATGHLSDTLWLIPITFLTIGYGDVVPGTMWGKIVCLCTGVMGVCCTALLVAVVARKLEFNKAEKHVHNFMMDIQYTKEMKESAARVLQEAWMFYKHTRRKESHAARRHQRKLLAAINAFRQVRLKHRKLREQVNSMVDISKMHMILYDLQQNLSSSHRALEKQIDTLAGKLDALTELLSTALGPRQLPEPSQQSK

red cell = assay type: cell-based; settings: data not shown
mdx mice = assay: Toxicity with daily subQ dosing for 30 days; assay type: in vivo, mouse
Experimental: This example describes toxicity studies with GsMTx-4. In one experiment, D-GsMTx4 was administered to 60 mdx mice and controls by daily subQ dosing at 5 mg/kg for 30 days at the Washington D.C. Wellstone center.

neurite = assay: Neurite initiation and neurite length; assay type: cell-based
From the text: The peptide GsMTx4 of the present invention can be prepared for pharmaceutical use by incorporation with a pharmaceutically acceptable carrier or diluent. The peptide can be formulated into tablets, capsules, caplets and the like. Suitable carriers for tablets include calcium carbonate, starch, lactose, talc, magnesium stearate and gum acacia. The peptide can also be formulated for oral, parenteral or intravenous administration in aqueous solutions, aqueous alcohol, glycol or oil solutions or emulsions. The peptide can also be formulated for inhaling by encapsulating to facilitate alveolar absorption as has been done for insulin (Inhale Therapeutic Systems, San Carlos, Calif., inhale.com). Pharmaceutical compositions suitable for such routes of administration are well known in the art. For example, suitable forms and compositions of pharmaceutical preparations can be found in Remington's Pharmaceutical Science, 1980, 15^thed. Mack Publishing Co., Easton, Pa. Thus, the peptide GsMTx4 can be administered orally, subcutaneously, parenterally, intravenously, intramuscularly or intranasally. The peptide may also be applied to medical devices that will come into contact blood. Both L and D enantiomers of GsMTx4's and its variants can be used for the present invention. We have previously shown that both L- and D-GsMTx4 block mechanosensitive channel (MSC) activity. Although, we have noted differences in the effects of these enantiomers, both forms are effective. For example, we have observed that the ability of the mirror image form (D-enantiomer) to inhibit mechanically activated ion channels is similar to the wild type peptide (L-form) (Suchyna et al 2004). […] Thus, both L and the D forms can be used in the present invention.

Substance: Grammastola spatulata mechanotoxin 4 (GCLEFWWKCNPNDDKCCRPKLKCSKLFKLCNFSF; listed as Grammastola spatulata) [GsMTx-4]
- effect on deoxygenation-induced increase in NPo, Ca2+ in the pipette [1]: prevented
- effect on LPA-induced increase in NPo [2]: prevented
- inhibition of LPA-induced cation conductance ([2]; 5 μM LPA, n=4): 97%
- effect on KCa3.1 activity, 86Rb influx (KCa3.1): no effect
- effect on red cell shape (red cell): did not alter
- toxicity in mice, general statement (mdx mice): very low to absent toxicity
- toxicity (mdx mice; 5 mg/kg subQ daily, 30 days (month long)): no toxicity observed
- effect on neurite length (neurite): no significant effect
- neurite initiation (neurite): stimulate
